Each structure is given as a SMILES string.

This data set can be described thus: gradient 5% acetonitrile 3 min, to 50% in 2 min, to 85% in 15 min, held 3 min, 100 µL/min. As to conditions: column: Zorbax Extend-C18 2.1 x 50 mm; eluents: water / acetonitrile, 0.1% formic acid. Put shortly:
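Each retention time is based on an adduct peak selected computationally and verified by manual inspection. Measurements used HPLC–quadrupole time-of-flight mass spectrometry in positive and negative ionization mode on mixtures of ~100 pure standards. Chromatography ran on a Zorbax Extend-C18 column (2.1 × 50 mm, 1.8 μm) at 100 μL/min with water and acetonitrile, each containing 0.1% formic acid, and dead and dwell volumes of 40 μL and 900 μL.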
`CCc1nc2cc(N3CCCC(C(=O)Nc4ccc(OC)cc4OC)C3)cnc2nc1CC` (centres undefined) returned an RP-LC retention time of 934 s. `Cc1ccc(N2CN(CC(=O)N3CCCc4ccccc43)S(=O)(=O)c3cccnc32)cc1` gave an RP-LC retention time of 1030 s. `Cc1ccc(NC(=O)Nc2ccc3nc(N4CCN(C)CC4)cc(C)c3c2)cc1Cl` displayed an RP-LC retention time of 640 s. Molecule `CCCn1cc(C(=O)NCCC(C)C)c(S(=O)(=O)N2CCN(c3ccccc3OCC)CC2)n1` showed an RP-LC retention time of 1240 s. Molecule `Cc1cccc(CC(=O)N2CCCn3cc(-c4cccc(C#N)c4)nc32)c1` registered an RP-LC retention time of 782 s. `O=C(C1CCCCC1)N1CCCN(c2ncccc2-c2nc(C3CC3)no2)CC1`: the RP-LC retention time stood at 1010 s. As for `CCCc1noc(-c2ccc3nnc(CC(=O)NC4CCCC4)n3c2)n1`, the figure is 922 s. As for `COc1cccc(-c2nc3cnccn3c2NCCC(=O)NC2CCCC2)c1`, the figure is 675 s. The result for `COc1ccc(NC(=O)CCc2c(C)nn(-c3cc(N(C)C)ncn3)c2C)cc1` reads 733 s; that for `COc1cccc(-c2nc(C3CCN(S(=O)(=O)c4ccccc4)CC3)no2)c1`, 1070 s. `CNC(=O)c1ccc2c(c1)CCCN2C(=O)c1cccc(Cl)c1` returned an RP-LC retention time of 746 s. In turn, `CCOC(=O)N1CCN(S(=O)(=O)c2cn(C)nc2C)CC1` had an RP-LC retention time of 644 s. In the case of `C=CCNC(=O)C1CCCN(C(=O)Nc2ccc(NC(=O)Nc3ccccc3)cc2)C1` (centres undefined), the RP-LC retention time worked out at 707 s. As for `Cn1cc(C2=CCN(C(=O)Nc3ccc(F)cc3F)CC2)c2cccnc21`, the figure is 792 s; as for `CCOC(=O)N1CCN(c2ncc3c(n2)CC(C)CC3=O)CC1` (centres undefined), 842 s. Regarding `COc1cccc(C(O)CN2CCN(c3ccccc3OC)CC2)c1` (centres undefined), the RP-LC retention time was 659 s. Turning to `O=C(NCc1noc(C2CCCC2)n1)c1ccc(F)cc1`, the RP-LC retention time is 798 s. In turn, `CCOc1ccc(C2Cn3nnc(-c4nc(C5CCCCC5)no4)c3CO2)cc1` (centres undefined) showed an RP-LC retention time of 1290 s. As to `CCN1C(=O)c2cc(C(=O)Nc3ccc(Cl)cc3)nn2CC1(C)C(=O)NC1CCCC1` (centres undefined), the RP-LC retention time stood at 860 s.

Molecule `Cc1ccc2c(c1)N(C(=O)Cn1c(=O)cc(C(=O)N3CCCCC3)c3ccccc31)CCO2` had an RP-LC retention time of 1010 s. With `O=C(NC1CCCCCC1)c1cccc(CN2C(=O)C3CCCN3C(=O)c3ccccc32)c1` (centres undefined), the RP-LC retention time is 865 s. `CC1(O)CCOC2(CCN(C(=O)c3ccc(Br)o3)CC2)C1` (centres undefined) showed an RP-LC retention time of 690 s.

In the case of `COc1cccc(NC(=O)C2CCN(S(=O)(=O)c3ccc4c(c3)sc(=O)n4C(C)C)CC2)c1`, the RP-LC retention time was 960 s. Take `CN(C(=O)c1c2c(cn(-c3ccccc3)c1=O)C(=O)CC(C)(C)C2)c1ccc(F)cc1`: the RP-LC retention time is 835 s. Consider `O=C1CCC2(CCN1)CCN(S(=O)(=O)c1ccc(Cl)cc1)CC2`, for which the RP-LC retention time came to 758 s.

As to `CC(C)CN1CCn2cc(C(=O)NCc3cc(F)ccc3F)nc2C1`, the RP-LC retention time was determined as 608 s. `CCn1cnc(S(=O)(=O)N2CCCC(C(=O)Nc3ccccc3F)C2)c1` (centres undefined) displayed an RP-LC retention time of 735 s. In turn, `O=C(Cn1c(=O)nc(-c2ccccc2)c2cc(Cl)ccc21)N1CCN(c2ccccn2)CC1` showed an RP-LC retention time of 646 s. The molecule `O=C(c1ccc(Br)cc1)N1CCc2nc(-c3ccccc3)ncc2C1` returned an RP-LC retention time of 1000 s.

For `COc1cc(NC(=O)NCC(c2cccn2C)N2CCOCC2)cc(OC)c1` (centres undefined), the RP-LC retention time stood at 563 s. In the case of `Cc1cccc(-n2c(N3CCCC(C(=O)NCc4ccccc4)C3)nc3ccsc3c2=O)c1` (centres undefined), the RP-LC retention time is 880 s.

In turn, `Cc1ccc(N(C)C(=O)C2CCCN2S(=O)(=O)c2cc3c(cc2C)NC(=O)C(C)O3)cc1` (centres undefined) registered an RP-LC retention time of 814 s. `Cn1cnc(S(=O)(=O)N2CCCCC2c2nc(-c3cccnc3)n[nH]2)c1` (centres undefined) gave an RP-LC retention time of 594 s. The molecule `O=C(CN1CCCCCC1)NCC12CCCC=C1NC(=O)CC2` (centres undefined) had an RP-LC retention time of 567 s. The result for `CCn1cc(S(=O)(=O)N2C[C@@H](C(N)=O)[C@H](c3n[nH]c(C)n3)C2)cn1` reads 576 s. `O=C(CC1CCCN(c2cnn(CC3CC3)c(=O)c2)C1)NC1CC1` (centres undefined): the RP-LC retention time turned out to be 651 s. As for `CCNc1cc(C)nc(N2CCN(C(=O)c3cccc(Br)c3)CC2)n1`, the figure is 775 s. The result for `O=C(Nc1cccn2nc(C3CC3)nc12)c1cccs1` reads 788 s; that for `Cc1sc2ccn(C)c(=O)c2c1C(=O)NCc1ccc(F)cc1Cl`, 827 s.

`COC(=O)C(C)Oc1cc(O)c2c(=O)cc(-c3ccccc3)oc2c1` (centres undefined) had an RP-LC retention time of 1060 s.

`O=C(Cn1cc(-c2ccccc2)c2ncn(C3CC3)c(=O)c21)NCc1ccco1`: the RP-LC retention time was 799 s. Molecule `Cc1cc(NCCCCCCCNc2cc(C)nc3cc(N)ccc23)c2ccc(N)cc2n1` registered an RP-LC retention time of 612 s. For `COc1ccc(Cl)cc1NC(=O)N1CCC(c2cc(N)on2)CC1`, the RP-LC retention time turned out to be 760 s. The result for `CC1CCN(c2cc(-c3noc(C(=O)NCCC4=CCCCC4)n3)ccn2)CC1` reads 1100 s; that for `CCCS(=O)(=O)N1CCN(C(=O)c2cc(-c3ccc(OC)cc3)n[nH]2)CC1`, 745 s; that for `Cc1cc(C)n(CCNC(=O)c2c(F)cccc2F)n1`, 607 s. `O=C(Nc1ccc(Br)cc1)N1CCCC1c1nc(-c2ccc(F)cc2F)no1` (centres undefined) displayed an RP-LC retention time of 1050 s. Take `Cc1cccc(CN2CCC(CNC(=O)C3CCCN(c4cc(=O)n(C)c(=O)n4C)C3)CC2)c1` (centres undefined): the RP-LC retention time is 599 s. `COc1ccc(Cl)cc1NC(=O)c1c(OC)cc(=O)n2c1CCCC2` registered an RP-LC retention time of 801 s.

`CN(C)S(=O)(=O)c1ccc2c(c1)N(CC(=O)N1CCN(c3ccccn3)CC1)CCS2` showed an RP-LC retention time of 640 s. The molecule `CCCn1nnc(NCc2ccc(-c3cc(Cl)ccc3Cl)o2)n1` gave an RP-LC retention time of 1180 s. As for `O=c1ccc(N2CCC(NS(=O)(=O)c3ccccc3C(F)(F)F)C2)n[nH]1` (centres undefined), the figure is 687 s; as for `c1ccc(-c2noc(NCCc3ccsc3)n2)cc1`, 969 s. `Cc1ccc(CNC(=O)Cn2nc(C)c3nn(-c4ccccc4)c(C)c3c2=O)o1` yielded an RP-LC retention time of 816 s. The result for `Cn1c(=O)c2c(ncn2CC(=O)N2CCCn3nc(-c4cccc(F)c4)cc3C2)n(C)c1=O` reads 677 s. The result for `COc1cccc(-n2c(N3CCCC(C(=O)NCCC(C)C)C3)nc3ccsc3c2=O)c1` (centres undefined) reads 872 s. With `CC1CCN(c2cc(-n3cnc(C(=O)N4CCCCC4)c3)ncn2)CC1`, the RP-LC retention time was determined as 920 s. As for `Nc1nc(-c2ccc(Cl)cc2)nn1C(=O)c1ccc(Cl)cc1`, the figure is 1170 s; as for `CCOc1ccc(CN2C[C@@H]3C(=O)N(Cc4ccc5c(c4)OCO5)C(=O)[C@@H]3C2)cc1`, 658 s.

`Cc1cc(S(=O)(=O)N2CCCC(Cn3cnc4cccnc43)C2)ccc1F` (centres undefined) came in with an RP-LC retention time of 787 s.

On to `CCc1nc(-c2csc(S(=O)(=O)N3CCCC(C(=O)Nc4ccc(C)c(C)c4)C3)c2)no1` (centres undefined), for which the RP-LC retention time is 1110 s. `CC(C)c1c(C2CCN(C(=O)c3ccoc3)CC2)noc1N` came in with an RP-LC retention time of 674 s.

For the molecule `CCC(=O)N(CC(=O)N(Cc1ccc2c(c1)OCO2)Cc1sccc1C)CC1CCCO1` (centres undefined), the RP-LC retention time was 864 s.

For the molecule `Cc1ccc(CNC(=O)CCNc2c(-c3ccc(F)cc3)nc3cnccn23)o1`, the RP-LC retention time was determined as 694 s.

Consider `Cc1ccc(CNC(=O)CCC2CCN(c3cc(NC4CC4)ncn3)CC2)cc1`, for which the RP-LC retention time amounted to 714 s. Molecule `COc1cc2c(cc1OC)CN(S(=O)(=O)CCCNC(=O)CC1CCCCC1)CC2` had an RP-LC retention time of 767 s. The result for `CCN1C(=O)COc2ccc(-c3csc(NC(=O)c4ccc(C)cc4)n3)cc21` reads 1040 s; that for `CNC(=O)C1CCCN(c2nc3ncn(CC(=O)Nc4cccc(C(C)C)c4)c(=O)c3s2)C1` (centres undefined), 711 s; that for `O=S(=O)(Cc1ccccc1)N1CCC(n2c(-c3ccco3)nc3cccnc32)C1` (centres undefined), 802 s. `Cc1cc(S(=O)(=O)N2CCc3c(c(-c4nnc(-c5ccccc5F)o4)nn3C)C2)ccc1F` came in with an RP-LC retention time of 988 s. `CCc1nc2ccccc2c(=O)n1Cc1noc(-c2ccc3c(c2)OCO3)n1`: the RP-LC retention time came to 964 s. The result for `O=C(CCNC(=O)Cn1cnc2ccccc2c1=O)NCCc1c[nH]c2ccccc12` reads 668 s. With `CCN(CC)C(=O)Cn1c(=O)c2cnc(-c3ccccc3)nc2n(C)c1=O`, the RP-LC retention time was found to be 854 s.

Consider `O=C(Nc1ccc2c(c1)CN(S(=O)(=O)c1ccccc1)CC2)NC1CCCCC1`, for which the RP-LC retention time was found to be 901 s.

The molecule `CCN1/C(=C/C(C)=O)Sc2ccc(OC)cc21` returned an RP-LC retention time of 845 s.

In the case of `N#Cc1ccc(CN2C[C@@H](CO)[C@H](c3nc(C4CC4)no3)C2)cc1`, the RP-LC retention time is 600 s. As for `COc1ccc(OC)c(NC(=O)Nc2c(-c3ccc(C)cc3)nc3ccccn23)c1`, the figure is 698 s; as for `O=C(Nc1ccccc1F)N1CCC(n2cnc3cc(Cl)ccc3c2=O)CC1`, 811 s. In the case of `N#Cc1cccc(CN2CCCCC2c2nncn2CC2CC2)c1` (centres undefined), the RP-LC retention time was 618 s.

Values taken from the METLIN SMRT retention time set (Domingo-Almenara et al. 2019).
